The values that follow come from PubChem BioAssay AID330 (DTP/NCI, 2004).

In the test the test system is P388 leukemia ip, CD2F1 mice, survival T/C. Description: NCI In Vivo Anticancer Drug Screen. Data for tumor model P388 Leukemia (intraperitoneal) in CD2F1 (CDF1) mice. As to conditions: endpoint: median survival time, higher = longer survival. The procedure, abridged: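 Mice carrying the transplanted tumor received test compound or vehicle. Survival was recorded in each group, and the value is the treated-group measurement divided by that of the vehicle-treated control group.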

The mark [1] stands for this setting: dose: 100.0 mg/kg/injection, schedule: Q04DX003 (ip), vehicle: saline with Tween-80.
Setting [2] is: dose: 200.0 mg/kg/injection, schedule: Q04DX003 (ip), vehicle: saline with Tween-80.
Where [3] appears, read: dose: 400.0 mg/kg/injection, schedule: Q04DX003 (ip), vehicle: saline with Tween-80.
Where [4] appears, read: dose: 50.0 mg/kg/injection, schedule: Q01DX009 (ip), vehicle: saline with Tween-80.
Where [5] appears, read: dose: 100.0 mg/kg/injection, schedule: Q01DX009 (ip), vehicle: saline with Tween-80.
Where [6] appears, read: dose: 50.0 mg/kg/injection, schedule: Q01DX009 (ip), vehicle: Klucel (hydroxypropylcellulose) (HPC).
Where [7] appears, read: dose: 100.0 mg/kg/injection, schedule: Q01DX009 (ip), vehicle: Klucel (hydroxypropylcellulose) (HPC).
The mark [8] stands for this setting: dose: 60.0 mg/kg/injection, schedule: Q01DX005 (ip), vehicle: saline with Tween-80.
The mark [9] stands for this setting: dose: 120.0 mg/kg/injection, schedule: Q01DX005 (ip), vehicle: saline with Tween-80.
[10] abbreviates: dose: 50.0 mg/kg/injection, schedule: Q01DX005 (ip), vehicle: Klucel (hydroxypropylcellulose) (HPC).
Setting [11] is: dose: 100.0 mg/kg/injection, schedule: Q01DX005 (ip), vehicle: Klucel (hydroxypropylcellulose) (HPC).
Where [12] appears, read: dose: 200.0 mg/kg/injection, schedule: Q01DX005 (ip), vehicle: Klucel (hydroxypropylcellulose) (HPC).
Setting [13] is: dose: 50.0 mg/kg/injection, schedule: Q04DX003 (ip), vehicle: saline with Tween-80.
The mark [14] stands for this setting: dose: 200.0 mg/kg/injection, schedule: Q01DX009 (ip), vehicle: Klucel (hydroxypropylcellulose) (HPC).
[15] abbreviates: dose: 100.0 mg/kg/injection, schedule: Q04DX003 (ip), vehicle: saline.
The mark [16] stands for this setting: dose: 200.0 mg/kg/injection, schedule: Q04DX003 (ip), vehicle: saline.
The mark [17] stands for this setting: dose: 400.0 mg/kg/injection, schedule: Q04DX003 (ip), vehicle: saline.
Where [18] appears, read: dose: 240.0 mg/kg/injection, schedule: Q01DX005 (ip), vehicle: saline with Tween-80.
Setting [19] is: dose: 12.5 mg/kg/injection, schedule: Q01DX005 (ip), vehicle: saline.
[20] abbreviates: dose: 25.0 mg/kg/injection, schedule: Q01DX005 (ip), vehicle: saline.
[21] abbreviates: dose: 50.0 mg/kg/injection, schedule: Q01DX005 (ip), vehicle: saline.
The mark [22] stands for this setting: dose: 50.0 mg/kg/injection, schedule: Q01DX009 (ip), vehicle: saline.
The mark [23] stands for this setting: dose: 100.0 mg/kg/injection, schedule: Q01DX009 (ip), vehicle: saline.
Where [24] appears, read: dose: 200.0 mg/kg/injection, schedule: Q01DX009 (ip), vehicle: saline.

The structures appear in SMILES notation. Values joined by “and” are separate entries in the source; they are usually repeats but may differ in a detail not shown here. Identical values can stand only once. Inconclusive results and toxic doses are left out.

Take `O=[N+]([O-])c1cc2[nH]cnc2c([N+](=O)[O-])c1Nc1ccccc1`: the T/C under setting [1] is 102 % of control, the T/C under setting [2] was 93 % of control and the T/C under setting [3] was 101 % of control.
Consider `Cc1ccc(S(=O)(=O)NC(=O)NC(=S)c2ccco2)cc1`, for which the T/C reads like this: (dose: 100.0 mg/kg/injection, schedule: Q01DX001 (ip), vehicle: saline with Tween-80) 101 % of control; (dose: 200.0 mg/kg/injection, schedule: Q01DX001 (ip), vehicle: saline with Tween-80) 97 % of control; (dose: 400.0 mg/kg/injection, schedule: Q01DX001 (ip), vehicle: saline with Tween-80) 102 % of control.
As to `COc1cccc2c1C(=O)c1c(O)c3c(c(O)c1C2=O)C[C@@](O)(C(=O)CSC(=O)c1ccccc1)C[C@@H]3OC1CC(N)C(O)C(C)O1` (stereo not given in full), the T/C runs as follows: (dose: 25.0 mg/kg/injection, schedule: Q01DX001 (ip), vehicle: water) 123 % of control; (dose: 50.0 mg/kg/injection, schedule: Q01DX001 (ip), vehicle: water) 109 % of control.
Turning to `ClCCN(CCCl)c1ccc(/C=N/Nc2ccc3ccccc3n2)cc1`, the T/C under setting [1] is 110 % of control, the T/C under setting [2] was 109 % of control and the T/C under setting [3] is 106 % of control.
On to `Nc1cc(NC=O)ncn1`, for which the T/C runs as follows: (dose: 25.0 mg/kg/injection, schedule: Q01DX009 (ip), vehicle: saline with Tween-80) 102 % of control; under setting [4], 105 % of control; under setting [5], 102 % of control.
With `CCCCCCn1c(Cl)c(C(=O)O)c2ccccc21`, the T/C (dose: 100.0 mg/kg/injection, schedule: Q04DX002 (ip), vehicle: saline with Tween-80) is 99 % of control; the T/C (dose: 200.0 mg/kg/injection, schedule: Q04DX002 (ip), vehicle: saline with Tween-80) is 97 % of control; the T/C (dose: 400.0 mg/kg/injection, schedule: Q04DX002 (ip), vehicle: saline with Tween-80) is 95 % of control.
For `C=CC(=O)OCCOCN(COCCOC(=O)C=C)c1nc(N(COCCOC(=O)C=C)COCCOC(=O)C=C)nc(N(COCCOC(=O)C=C)COCCOC(=O)C=C)n1`, the T/C is 99 % of control (dose: 50.0 mg/kg/injection, schedule: Q01DX005 (ip), vehicle: saline with Tween-80) and 107 % of control (dose: 100.0 mg/kg/injection, schedule: Q01DX005 (ip), vehicle: saline with Tween-80).
Regarding `Cc1ccc(I)c(C(O)(C(F)(F)F)C(F)(F)F)c1`, the T/C is, setting by setting: under setting [6], 97 % of control; under setting [7], 91 % of control.
In the case of `O=C(Nc1nc2c(Cl)cccc2s1)C(F)(F)C(F)(F)C(F)(F)F` (tested in a mixture with another compound), the T/C under setting [4] was 114 % of control and the T/C under setting [5] was 101 % of control.
With `Cc1ccc(/C=C/C(=N/Nc2ccccc2)C(C)CN(C)C)cc1` (stereo not given), the T/C under setting [8] is 100 % of control and the T/C under setting [9] was 89 % of control.
Regarding `C=C1C(=O)OC2CC(C)C3(O)CCC(=O)C3(C)CC12` (stereo not given), the T/C was 98 % of control (dose: 25.0 mg/kg/injection, schedule: Q01DX005 (ip), vehicle: Klucel (hydroxypropylcellulose) (HPC)); 90 % of control under setting [10]; 100 % of control under setting [11]; 102 % of control under setting [12].
Regarding `COC(=O)C1CC2(C(=O)O)CC(C(=O)O)(CC(C(=O)OC)C2=O)C1=O` (stereo not given), the T/C is, setting by setting: under setting [13], 101 % of control; under setting [1], 101 % of control; under setting [2], 104 % of control.
For the molecule `CN1C(=O)c2ccc3c4ccc5c6c(ccc(c7ccc(c2c37)C1=O)c64)C(=O)N(c1ccccc1)C5=O`, the T/C by setting is: under setting [10], 87 % of control; under setting [11], 86 % of control; under setting [12], 86 % of control.
`Clc1cccc2nc(-c3ccccn3)n(CCc3ccccn3)c12`: the T/C runs as follows: under setting [10], 96 % of control; under setting [11], 100 % of control; under setting [12], 100 % of control.
On to `CCCCCCCCCCCCCN1CCS(=O)(=O)CC1`, for which the T/C by setting is: under setting [6], 98 % of control; under setting [7], 94 % of control; under setting [14], 89 % of control.
Consider `O=C(O)/C=C\C(=O)Nc1ccccc1NC(=O)/C=C/C(=O)O`, for which the T/C under setting [15] was 91 % of control, the T/C under setting [16] was 100 % of control and the T/C under setting [17] was 87 % of control.
`CCC(C)C1SCC(=O)N1c1nncs1` (stereo not given): the T/C was 104 % of control under setting [8], 100 % of control under setting [9] and 107 % of control under setting [18].
For the molecule `CCOC(=O)/C=C/C(=O)O` (tested in a mixture with another compound), the T/C was 100 % of control under setting [15], 98 % of control under setting [16] and 96 % of control under setting [17].
`COc1cc(NCC(C)(O)CN(CC(C)C)CC(C)C)c2ncccc2c1` (stereo not given): the T/C was 106 % of control under setting [19]; 106 % of control under setting [20]; 112 % of control and 97 % of control under setting [21].
Consider `NC1(N)ON(c2ccc(C=O)cc2)C(c2ccc([N+](=O)[O-])cc2)S1` (stereo not given), for which the T/C is 89 % of control under setting [10], 95 % of control under setting [11] and 89 % of control under setting [12].
In the case of `COc1cc(/C=C/c2ccccn2)oc(=O)c1`, the T/C was 102 % of control (dose: 100.0 mg/kg/injection, schedule: Q04DX002 (ip), vehicle: Klucel (hydroxypropylcellulose) (HPC)); 100 % of control (dose: 200.0 mg/kg/injection, schedule: Q04DX002 (ip), vehicle: Klucel (hydroxypropylcellulose) (HPC)); 100 % of control (dose: 400.0 mg/kg/injection, schedule: Q04DX002 (ip), vehicle: Klucel (hydroxypropylcellulose) (HPC)).
In the case of `O=c1/c(=C/c2ccc(Cl)cc2)sc2nc(-c3ccccc3)nn12`, the T/C is, setting by setting: under setting [6], 94 % of control; under setting [7], 95 % of control; under setting [14], 101 % of control.
On to `O=CC1CCC(c2ccc3ccccc3c2)O1` (stereo not given), for which the T/C was 106 % of control under setting [8], 114 % of control under setting [9] and 114 % of control under setting [18].
Consider `CCOc1nc(N)nc(C)c1N=Nc1ccc(Cl)cc1Cl`, for which the T/C (dose: 60.0 mg/kg/injection, schedule: Q01DX005 (ip), vehicle: Klucel + Tween-80) is 100 % of control and the T/C (dose: 120.0 mg/kg/injection, schedule: Q01DX005 (ip), vehicle: Klucel + Tween-80) is 110 % of control.
For the molecule `NC(=S)N/N=C\c1ncnc2ccccc12`, the T/C is 104 % of control (dose: 1.0 mg/kg/injection, schedule: Q01DX009 (ip), vehicle: saline with Tween-80); 118 % of control (dose: 2.0 mg/kg/injection, schedule: Q01DX009 (ip), vehicle: saline with Tween-80); 100 % of control (dose: 4.0 mg/kg/injection, schedule: Q01DX009 (ip), vehicle: saline with Tween-80); 154 % of control (dose: 12.0 mg/kg/injection, schedule: Q01DX009 (ip), vehicle: saline with Tween-80); 150 % of control (dose: 12.5 mg/kg/injection, schedule: Q01DX009 (ip), vehicle: saline with Tween-80); 112 % of control (dose: 12.5 mg/kg/injection, schedule: Q04DX003 (ip), vehicle: saline with Tween-80). Also, the T/C was 172 % of control (dose: 18.0 mg/kg/injection, schedule: Q01DX009 (ip), vehicle: saline with Tween-80); 116 % of control (dose: 25.0 mg/kg/injection, schedule: Q04DX003 (ip), vehicle: saline with Tween-80); 120 % of control under setting [13].
Regarding `CC1=CC(C)(C)N(C)C(N)=N1`, the T/C under setting [19] is 100 % of control, the T/C under setting [20] was 91 % of control and the T/C under setting [21] is 91 % of control.
Turning to `CCOP(=O)(Cc1ccc(-c2nc3ccccc3o2)cc1)OCC`, the T/C by setting is: under setting [22], 103 % of control; under setting [23], 100 % of control; under setting [24], 99 % of control.
The matching figures for `Clc1ccc(-c2noc(CN3CCOCC3)n2)cc1`: 102 % of control, 105 % of control and 109 % of control.
